Among the test systems are SF-268 CNS; A498 renal; SNB-19 CNS; DU-145 prostate; HS 578T breast; UO-31 renal; TK-10 renal; CCRF-CEM leukemia; K-562 leukemia; MDA-MB-231 breast.
Holding throughout (test): NCI-60 cell line screen, 48 h

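Each compound was tested at five concentrations against cells in 96-well plates for 48 hours. GI50: concentration for 50% inhibition of growth. At the TGI there is no net growth.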

This is an account of results in PubChem BioAssay (NCI).

Regarding `CC1=C(/C=C/C(C)=C\C=C\C(C)=C\C(=O)Nc2ccc3c(c2)OCO3)C(C)(C)CCC1`, the GI50 with SF-268 CNS, with A498 renal, with SNB-19 CNS, in the experiment on DU-145 prostate, with HS 578T breast and with UO-31 renal was more than 100 µM each time. Moreover, the GI50 in the experiment with TK-10 renal is more than 100 µM; in the experiment on CCRF-CEM leukemia, 22.6 µM; with K-562 leukemia, 7.56 µM; in the experiment with MDA-MB-231 breast it was more than 100 µM. In addition, the TGI with SF-268 CNS, in the experiment with A498 renal, in the experiment with SNB-19 CNS, with DU-145 prostate, in the experiment on HS 578T breast and in the experiment on UO-31 renal was more than 100 µM throughout. Further, the TGI in the experiment with TK-10 renal, in the experiment with CCRF-CEM leukemia, in the experiment on K-562 leukemia and in the experiment with MDA-MB-231 breast was more than 100 µM in each case.
As for `CC(C)(C)N1CCC1C(N)=O` (stereo not given), the GI50 in the experiment with SF-268 CNS, with A498 renal, with SNB-19 CNS, in the experiment with DU-145 prostate, in the experiment with HS 578T breast and with UO-31 renal was more than 100 µM throughout. The GI50 in the experiment on TK-10 renal, with CCRF-CEM leukemia, with K-562 leukemia and in the experiment with MDA-MB-231 breast was more than 100 µM throughout. Moreover, the TGI with SF-268 CNS, with A498 renal, in the experiment with SNB-19 CNS, with DU-145 prostate, with HS 578T breast and in the experiment on UO-31 renal was more than 100 µM throughout. For the same compound, the TGI in the experiment on TK-10 renal, in the experiment on CCRF-CEM leukemia, with K-562 leukemia and in the experiment on MDA-MB-231 breast was more than 100 µM throughout.
For the compound `CCCCn1c2cc(OCc3cn(-c4ccc(Cl)cc4)nn3)ccc2c2ccnc(C)c21`, the GI50 in the experiment with SF-268 CNS was 9.15 µM; with A498 renal, 5.08 µM; in the experiment on SNB-19 CNS, 14.1 µM; with DU-145 prostate, 15.2 µM; in the experiment with HS 578T breast, 7.09 µM; in the experiment with UO-31 renal, 4.32 µM. Besides, the GI50 in the experiment on TK-10 renal is 7.55 µM; in the experiment with CCRF-CEM leukemia, 9.27 µM; in the experiment on K-562 leukemia, 2.89 µM; with MDA-MB-231 breast it was 7.26 µM. Moreover, the TGI with SF-268 CNS was more than 33.3 µM; in the experiment on A498 renal, 14.1 µM; in the experiment on SNB-19 CNS, more than 33.3 µM; in the experiment on DU-145 prostate it was more than 33.3 µM; in the experiment with HS 578T breast, 32.1 µM; with UO-31 renal it was 10 µM. Also, the TGI is 14.1 µM in the experiment with TK-10 renal, more than 33.3 µM in the experiment on CCRF-CEM leukemia, more than 33.3 µM in the experiment on K-562 leukemia and 24.6 µM in the experiment on MDA-MB-231 breast.
Regarding `C[C@]12CCC3[C@@H](C[C@@H]4SC(Nc5ccccc5)=N[C@@]45CC(=O)CC[C@]35C)[C@@H]1CCC2=O` (stereo not given in full), the GI50 is 5.95 µM with SF-268 CNS; 28.8 µM in the experiment with A498 renal; 12.9 µM with SNB-19 CNS; 4.34 µM in the experiment with DU-145 prostate; 12 µM in the experiment with HS 578T breast; 5.26 µM in the experiment on UO-31 renal. In addition, the GI50 was 7.46 µM with TK-10 renal, 2.84 µM in the experiment on CCRF-CEM leukemia, 2.79 µM with K-562 leukemia and 13.4 µM in the experiment with MDA-MB-231 breast. The TGI was 70 µM with SF-268 CNS; more than 100 µM with A498 renal; more than 100 µM in the experiment with SNB-19 CNS; 40.9 µM with DU-145 prostate; more than 100 µM in the experiment with HS 578T breast; 19.4 µM in the experiment on UO-31 renal. Besides, the TGI in the experiment with TK-10 renal is 54.8 µM; in the experiment on CCRF-CEM leukemia, more than 100 µM; in the experiment on K-562 leukemia it was more than 100 µM; with MDA-MB-231 breast it was more than 100 µM.
As to `Cc1ccc2c(c1)nc(C(=O)c1ccco1)c(C(F)(F)F)[n+]2[O-]`, the GI50 in the experiment on SF-268 CNS was more than 100 µM; with A498 renal, 1.66 µM; in the experiment with SNB-19 CNS it was more than 100 µM; in the experiment on DU-145 prostate, more than 100 µM; with HS 578T breast, 2.33 µM; with UO-31 renal, 47.2 µM. Also, the GI50 was more than 100 µM with TK-10 renal, more than 100 µM with CCRF-CEM leukemia, 40.5 µM in the experiment with K-562 leukemia and more than 100 µM in the experiment with MDA-MB-231 breast. Further, the TGI in the experiment with SF-268 CNS was more than 100 µM; in the experiment on A498 renal it was 3.06 µM; with SNB-19 CNS, more than 100 µM; with DU-145 prostate it was more than 100 µM; in the experiment with HS 578T breast it was 5.76 µM; with UO-31 renal, more than 100 µM. Moreover, the TGI with TK-10 renal, in the experiment on CCRF-CEM leukemia, in the experiment on K-562 leukemia and with MDA-MB-231 breast was more than 100 µM throughout.
Take `CSc1nc2c(c(=O)[nH]1)N=C1c3ccccc3C(=O)C1C(c1ccc(F)cc1)N2` (stereo not given): the GI50 is 12.7 µM in the experiment on SF-268 CNS; 4.88 µM with A498 renal; 15.9 µM in the experiment on SNB-19 CNS; 16.2 µM with DU-145 prostate; 5.85 µM in the experiment on HS 578T breast; 16.3 µM in the experiment on UO-31 renal. For the same compound, the GI50 with TK-10 renal was 12.9 µM; in the experiment on CCRF-CEM leukemia, 8.16 µM; with K-562 leukemia, 4.05 µM; in the experiment with MDA-MB-231 breast, 12.6 µM. In addition, the TGI in the experiment with SF-268 CNS is 49.9 µM; with A498 renal, 20.5 µM; with SNB-19 CNS it was 66 µM; in the experiment on DU-145 prostate, 42.2 µM; in the experiment with HS 578T breast it was 43.6 µM; in the experiment with UO-31 renal, more than 100 µM. For the same compound, the TGI in the experiment on TK-10 renal is 37.6 µM; with CCRF-CEM leukemia it was more than 100 µM; in the experiment with K-562 leukemia, more than 100 µM; in the experiment with MDA-MB-231 breast, more than 100 µM.
Turning to `C=C1C(=O)O[C@H]2[C@H]1CC/C(COC(=O)NCc1cc3ccccc3[nH]1)=C\CC[C@@]1(C)O[C@@H]21`, the GI50 with SF-268 CNS was 2.08 µM; with A498 renal, 10.9 µM; in the experiment on SNB-19 CNS, 5.62 µM; with DU-145 prostate, 1.52 µM; with HS 578T breast, 2.8 µM; with UO-31 renal, 1.2 µM. For the same compound, the GI50 with TK-10 renal is 2.26 µM; with CCRF-CEM leukemia, 0.443 µM; in the experiment on K-562 leukemia, 1.63 µM; in the experiment with MDA-MB-231 breast, 1.65 µM. Besides, the TGI in the experiment on SF-268 CNS amounted to 5.4 µM; in the experiment with A498 renal it was 23.4 µM; in the experiment with SNB-19 CNS, 20.4 µM; in the experiment with DU-145 prostate, 2.93 µM; in the experiment with HS 578T breast, 15.6 µM; in the experiment with UO-31 renal, 2.43 µM. The TGI with TK-10 renal came out at 4.19 µM; in the experiment on CCRF-CEM leukemia, 3.36 µM; in the experiment with K-562 leukemia it was 9.18 µM; with MDA-MB-231 breast it was 3.57 µM.
